# Results as given in patent US20150018411A1, “COMPOUNDS AS PPAR BETA/DELTA INHIBITORS FOR TREATING PPAR BETA/DELTA-MEDIATED DISEASES” (PHILIPPS-UNIVERSITAT MARBURG, priority 2011, published 2015).
# Assays:
# ANGPTL4 gene expression = test: Stimulus-induced ANGPTL4 expression in human fibroblasts; format: cell-based
# GST-PPAR beta/delta LBD = molecular target: T1, GST-PPAR beta/delta LBD (Homo sapiens, UniProt Q03181); test: Inhibition of agonist L165041-induced recruitment of co-activator peptide C33, TR-FRET; format: biochemical; details: 1 μM test substance, increasing concentrations of agonist L165041
# T1 construct: GST-PPAR beta/delta LBD (GST=glutathione S-transferase); purchased Invitrogen, Darmstadt, Germany
# T1 sequence (Q03181 211-439 limits assumed): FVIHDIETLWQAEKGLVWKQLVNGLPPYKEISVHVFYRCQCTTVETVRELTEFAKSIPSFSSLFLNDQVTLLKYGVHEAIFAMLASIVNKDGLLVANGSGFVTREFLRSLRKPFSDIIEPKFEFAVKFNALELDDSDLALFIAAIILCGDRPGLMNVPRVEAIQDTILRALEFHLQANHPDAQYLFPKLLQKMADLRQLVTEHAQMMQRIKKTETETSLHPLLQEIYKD
# Protocol: FIG. 3: Inhibition of agonist-induced co-activator peptide binding (A) and inverse agonist compound 1-induced corepressor peptide binding (B) by the substance of this invention compound 5. • The recruitment of the co-activator or corepressor peptide, respectively, is determined in a TR-FRET assay. As co-activator peptide, C33 is utilized, as corepressor peptide SMRT-ID2. The experiment is performed with a constant concentration of 1 μM of the substance of this invention compound 5 and increasing concentrations of the agonist L165041 (A) or the inverse agonist compound 1 (B), respectively.
# C) The inhibition of the recruitment of co-activator peptide C33 known to the expert in this field mediated by PPAR beta/delta agonist L165,041 or the inhibition of the inverse agonist inventive compound 1-mediated binding of the corepressor peptide SMRT-ID2 to GST-PPAR beta/delta LBD by the substance of this invention compound 5 (1 μM) was also determined by TR-FRET measurements. Both is shown in FIGS. 3 A and B in dependency of the concentration of the agonist (A) and the inverse agonist (B), respectively.
Structure (SMILES),"induction of ANGPTL4 expression by TGF-beta1, TGF-beta2, dexamethasone or TPA (ANGPTL4 gene expression)",inhibition of agonist-induced recruitment of co-activator peptide C33 (GST-PPAR beta/delta LBD)
"CCCCCCNc1ccc(NS(=O)(=O)c2ccsc2C(=O)OC)c(OC)c1 [compound 1, methyl 3-(N-(4-(hexylamino)-2-methoxyphenyl)sulfamoyl)thiophene-2-carboxylate]",significantly be reduced,–
"COC(=O)c1sccc1S(=O)(=O)Nc1ccc(NC(C)(C)C)cc1OC [compound 5, methyl 3-(N-(4-(tert-butylamino)-2-methoxyphenyl)sulfamoyl)thiophene-2-carboxylate]",–,prevents
